Results from patent US20250360108A1, “CATALYTIC INHIBITOR OF PROTEIN PHOSPHATASE 5 ACTIVATES THE EXTRINSIC APOPTOTIC PATHWAY BY DISRUPTING COMPLEX II” (The Research Foundation for the State University of New York, priority 2022, published 2025).
Each block holds one molecule with its values, some of them ahead of it.

What was measured:
[1] = molecular target: T1, recombinant PP5-His6 (Homo sapiens, UniProt P53041); test: PP5 Phosphatase Activity and Inhibition Assay (PiPer phosphate release, phospho-S211-GR peptide); assay type: biochemical; conditions: phospho-S211-GR peptide substrate
T1 construct: GST (N, cleaved yes); made in house
T1 sequence (P53041 1-499): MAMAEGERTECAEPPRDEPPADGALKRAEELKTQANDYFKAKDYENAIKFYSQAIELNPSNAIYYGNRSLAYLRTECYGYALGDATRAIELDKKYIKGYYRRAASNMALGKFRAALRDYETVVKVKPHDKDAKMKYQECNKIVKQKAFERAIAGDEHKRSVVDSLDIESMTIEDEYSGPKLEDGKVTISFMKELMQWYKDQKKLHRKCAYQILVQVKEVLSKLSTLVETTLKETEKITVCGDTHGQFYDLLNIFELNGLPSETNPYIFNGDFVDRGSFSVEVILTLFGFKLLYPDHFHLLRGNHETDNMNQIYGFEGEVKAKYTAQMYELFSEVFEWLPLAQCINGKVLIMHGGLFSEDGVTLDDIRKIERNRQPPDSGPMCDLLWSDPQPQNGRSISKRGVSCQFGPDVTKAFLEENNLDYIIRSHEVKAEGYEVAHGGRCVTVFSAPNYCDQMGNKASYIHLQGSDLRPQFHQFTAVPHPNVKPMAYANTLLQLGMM
Procedure: PP5 inhibitors specifically bind to the phosphatase-catalytic domain: We next sought to measure the inhibition of PP5 activity in vitro with P5 and P13.
Bacterial Expression and Protein Purification of PP5: Human PPP5c was cloned into pGEX6P1 with an N-terminal GST tag and C-terminal His6 tag. Transformed cells were grown at 37° C. in LB with 100 mg/L ampicillin until OD600=0.6 and induced with 1 mM IPTG. Cells were harvested by centrifugation and lysed by sonication in lysis buffer (50 mM Hepes (pH 8.0), 150 mM NaCl, 0.5 mM TCEP and EDTA-free protease inhibitor cocktail tablet (Roche)). Lysate was incubated with talon resin (Takara Bio) for 1 hr at 4° C. The resin was washed three times with lysis buffer and PP5 was eluted with lysis buffer containing 250 mM imidazole. Precision protease was added to the elution overnight to cleave the GST tag and the sample was then mixed with Glutathione Sepharose resin (Cytiva) to remove the free GST and un-cleaved protein. The sample was applied to a Superdex S75 16/60 size exclusion column (GE Healthcare) and eluted in 100 mM NaCl, 20 mM Hepes pH 8, 02 mM TCEP.
PP5 Phosphatase Activity and Inhibition Assay: The phosphatase activity of the recombinant PP5-His6 was measured using the PiPer™ Phosphate Assay Kit (Thermo Fisher Scientific) as described in the manufacturer's protocol. Standard curve with linear fit line was created from 0-1 nM Pifinal concentration reactions. 1 nM of PP5-His6 was added to each reaction with indicated amounts of custom synthesized substrate phospho-S211-glucocorticoid receptor (PhosS211-GR) peptide (see Key Resources Table) as specific substrate (Thermo Fisher Scientific). Reactions were run in triplicate and incubated at 37° C. for over 10 min. […] Enzyme kinetics were calculated and plotted using Lineweaver Burk plot and web-based tool (https://www.aatbio.com/tools/ic50-calculator) for calculating IC50 and (https://bioinfo-abcc.ncifcrf.gov/IC50_Ki_Converter/index.php) for converting IC50 to Ki values for inhibitors of enzyme activity and ligand binding.

[2] = test system: 786-O cells; test: Induction of apoptosis by immunoblotting of apoptotic markers; assay type: cell-based, human
Procedure: Method Details Cell Transfection and Treatment: Cultured cells were split and then transfected the following day when about 40% confluent with each construct using Mirus TranslT-2020 (MirusBio) according to manufacturer's protocol. Cells were incubated at 37° C. and then extracted or collected for analysis after 24 hrs (HEK293) or 72 hrs (ccRCC cell lines). Short interfering RNA (siRNA) scramble control and PPP5C (PP5) targeting duplexes were purchased from OriGene (SKU: SR321403A, SR321403B, and SR321403C). Indicated cells were transiently transfected with the siRNA using Mirus TranslT-2020. For PP5 knock-down, either 30 nM of control siRNA or 10 nM of each PP5 siRNA duplex (A, B and C) were mixed prior to transfection. Cells were incubated at 37° C. for 72 hrs, then harvested for protein extraction. […] Cells were then harvested for protein extraction.
Protein Extraction, Immunoprecipitation and Immunoblotting: Protein extraction from mammalian cells was carried out using methods previously described. Cell lysates were quantified using 1× Bradford reagent (Biorad). For immunoprecipitation, cell lysates were incubated with anti-FLAG antibody conjugated beads (Sigma) or anti-HA conjugated beads (ThermoFisher Scientific) at 4° C. for 2 hrs. Endogenous IPs were achieved by incubating lysate with anti-PP5 antibody (Cell Signaling), anti-FADD antibody (Cell Signaling), or anti-RIPK1 antibody (Cell Signaling) overnight followed by protein G agarose (Invitrogen) at 4° C. for 2 hrs. Immunopellets were washed 4 times with fresh lysis buffer (20 mM Tris-HCl (pH 7.4), 100 mM NaCl, 1 mM MgCl2, 0.1% NP40, protease inhibitor cocktail (Roche), and PhosSTOP (Roche)) and eluted in 5× Laemmli buffer. Precipitated proteins were separated by SDS-PAGE and transferred to nitrocellulose membranes. Co-immunoprecipitated proteins or proteins from cell lysate were detected with antibodies recognizing FLAG, 6×-His (ThermoFisher Scientific), GAPDH (ENZO Life Sciences), Cdc37 (StressMarq), GR, phospho-GR (S211), PP5, caspase-3, cleaved caspase-3, caspase-8, cleaved caspase-8, cleaved caspase-7, cleaved-PARP, phospho-RIPK1 (S166), phospho-FADD (S194), PP2A-C, VHL (Cell Signaling), phospho-RIPK1 (S161) (Invitrogen), PP5 and phospho-Cdc37 (S13) (Abcam). Secondary antibodies raised against mouse and rabbit (Cell Signaling) were used (See Key Resources Table).

[3] = molecular target: T1, recombinant PP5-His6; test: P13-BODIPY binding to PP5 by fluorescence anisotropy; conditions: measured with 10 nM BODIPY-labeled P13, one-site fit; read-out: binding affinity to PP5
Procedure: We next synthesized BODIPY-labelled version of compound P13 (P13-BODIPY) in order to obtain the binding affinity of this inhibitor to PP5 in vitro (FIG. S3A). This was accomplished by coupling the azidopropyl-P13 10 with 4,4-difluoro-5,7-dimethyl-4-bora-3a,4a-diaza-s-indacene-3-propionic acid (BODIPY Acid 13). Using fluorescence anisotropy with recombinant PP5 protein (FIG. S3B), we determined the binding affinity of P13 compound to PP5 to be 376.2±60 nM (FIG. 1H).
Binding Measurements and Anisotropy: Recombinant PP5-His6 at the indicated concentrations was incubated on ice in 100 mM NaCl, 20 mM HEPES pH 8.0, 1% glycerol, 0.2 mM tris(2-carboxyethyl)phosphine (TCEP) and 0.5 mM MnCl2 with 10 nM BODIPY-labeled P13 in 2% DMSO for 30 min in opaque black 96 well plates (Corning). Uncalibrated fluorescence anisotropy was then measured using a SpectraMax i3 equipped with fluorescein anisotropy module (Molecular Devices). Curves were fit to a one-site binding equation using GraphPad Prism version 9.5.0. y=y0+A*x/(Kd+x) where y is measured uncalibrated anisotropy, y0 is the y intercept, A is the amplitude of the curve, x is the concentration of PP5 used, and Kd is the measured dissociation constant. Data are presented as mean±SEM.

[4] = test system: 786-O cells; test: Cell viability / proliferation MTT assay; assay type: cell-based, human; conditions: varying doses, 48 hrs
Procedure: Cell Viability Assay: Renal cancer cell lines 786-O, Caki-2, Caki-1, and A498 as well as the normal renal cell line HK-2 were plated at 10,000 cells per well in 96-well plates. […] After 24 or 48 hrs, cell viability assay was performed using the Quick Cell Proliferation Kit Plus (BioVision) according to the manufacturer's protocol. The absorbance at 450 nm was measured on a Tecan Infinite M200 Pro and proliferation rate was calculated.

[5] = test system: VHL-null ccRCC cells; test: Flow cytometric cell death by propidium iodide staining; assay type: cell-based, human; conditions: 30 or 40 μM; A498 and 786-O versus Caki-1 and Caki-2
Procedure: Flow Cytometric Analysis: Fluorescence-activated cell sorting (FACS) analysis was performed according to the protocol in the Annexin V:FITC kit (Bio-Rad). In brief, cells were plated in 10 cm dish at 0.5×10^6 and incubated at 37° C. for 18 hrs. […] Cells were trypsinized, collected and washed once with 1× binding buffer (included in the kit). Propidium iodide was added, then the cells were immediately run on a Becton Dickinson LSRFortessa instrument (BD Biosciences). Data were analyzed using FlowJo software version 10.7.1 for Windows (BD Biosciences).

[6] = test system: S194-FADD; test: Phosphorylation of S194-FADD by immunoblot after IC261; assay type: cell-based, human; conditions: 786-O and A498 cells, indicated amounts, 24 hrs
Procedure: Method Details Cell Transfection and Treatment: Cultured cells were split and then transfected the following day when about 40% confluent with each construct using Mirus TranslT-2020 (MirusBio) according to manufacturer's protocol. Cells were incubated at 37° C. and then extracted or collected for analysis after 24 hrs (HEK293) or 72 hrs (ccRCC cell lines). Short interfering RNA (siRNA) scramble control and PPP5C (PP5) targeting duplexes were purchased from OriGene (SKU: SR321403A, SR321403B, and SR321403C). Indicated cells were transiently transfected with the siRNA using Mirus TranslT-2020. For PP5 knock-down, either 30 nM of control siRNA or 10 nM of each PP5 siRNA duplex (A, B and C) were mixed prior to transfection. […]
Protein Extraction, Immunoprecipitation and Immunoblotting: Protein extraction from mammalian cells was carried out using methods previously described. Cell lysates were quantified using 1× Bradford reagent (Biorad). […] Co-immunoprecipitated proteins or proteins from cell lysate were detected with antibodies recognizing FLAG, 6×-His (ThermoFisher Scientific), GAPDH (ENZO Life Sciences), Cdc37 (StressMarq), GR, phospho-GR (S211), PP5, caspase-3, cleaved caspase-3, caspase-8, cleaved caspase-8, cleaved caspase-7, cleaved-PARP, phospho-RIPK1 (S166), phospho-FADD (S194), PP2A-C, VHL (Cell Signaling), phospho-RIPK1 (S161) (Invitrogen), PP5 and phospho-Cdc37 (S13) (Abcam). […]

[7] = molecular target: T2, PP5 (Homo sapiens, UniProt P53041); conditions: cited from earlier work
T2 sequence (P53041 1-499): T1 sequence (P53041 1-499)

[8] = test system: PP1; conditions: cited from earlier work
[9] = test system: PP2A; test: Biotin-P5 / biotin-P13 pulldown in 786-O lysate, co-pulldown of PP2A; assay type: binding, human; conditions: cell lysate, 1 μM
[10] = molecular target: T3, PP5-FLAG (Homo sapiens, UniProt P53041); test: Biotin-P5 and biotin-P13 pulldown from HEK293 lysate; assay type: binding
T3 construct: expressed in transfected cells; host or cells: HEK293
T3 sequence (P53041 1-499): T1 sequence (P53041 1-499)
Procedure: (§1) Biotin-P5 and biotin-P13 Pulldown: HEK293 cells were transiently transfected with PP5-FLAG or active site point mutants and protein lysate extracted. Lysate was incubated with 0.01-10 μM biotin-P5 or biotin P-13 as indicated at 4° C. for 1 hr then added to streptavidin-conjugated agarose and incubated at 4° C. for 1 hr. Following three washes with fresh extraction buffer bound proteins were eluted in 5× Laemmli buffer and analyzed by Western blot. […] Samples were run by SDS PAGE, transferred to nitrocellulose membrane, and analyzed by Western blot.

[11] = test system: PP5-FLAG active site point mutants; test: Biotin-P13 pulldown of PP5 active site point mutants; assay type: binding, human; conditions: HEK293 lysate
Procedure: (§2) We then mutated docking site residues in the active site of PP5 to obtain further insight into the mechanism of P13 binding to PP5. […] These mutants were transiently expressed in HEK293 cells, and then the protein lysates were challenged with different amounts of biotin-P13 (FIG. 1G).
as §1

[12] = molecular target: T4, PP5-FLAG active site point mutants (Homo sapiens, UniProt P53041, R400A); test: as above; assay type: binding; conditions: HEK293 lysate
T4 construct: expressed in transfected cells; host or cells: HEK293
T4 sequence (P53041 2-499 R400A): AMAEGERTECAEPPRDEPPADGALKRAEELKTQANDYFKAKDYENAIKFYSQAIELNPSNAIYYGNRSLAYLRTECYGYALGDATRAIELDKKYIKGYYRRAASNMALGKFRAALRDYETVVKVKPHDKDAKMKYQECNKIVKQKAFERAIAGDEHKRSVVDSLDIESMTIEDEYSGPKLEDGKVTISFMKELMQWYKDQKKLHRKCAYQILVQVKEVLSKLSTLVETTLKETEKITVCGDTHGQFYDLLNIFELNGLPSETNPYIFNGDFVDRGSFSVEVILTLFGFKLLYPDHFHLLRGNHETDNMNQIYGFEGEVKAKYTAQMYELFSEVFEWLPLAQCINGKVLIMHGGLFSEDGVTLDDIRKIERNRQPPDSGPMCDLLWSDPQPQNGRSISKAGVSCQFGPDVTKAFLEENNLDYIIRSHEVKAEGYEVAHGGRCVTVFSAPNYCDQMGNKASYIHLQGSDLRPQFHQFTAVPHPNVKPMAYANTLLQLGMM
Procedure: as §2, §1

- mode of PP5 inhibition (enzyme kinetics, Lineweaver-Burk) [1]: competitive inhibitors
- Ki ([1]; IC50 converted to Ki): 234 ± 50 nM
- Kd [3]: 376 ± 60 nM
Structure (SMILES): Cc1ccc(NS(=O)(=O)c2c(C)noc2C)cc1C [Compound P13, (3,5-Dimethyl-4-isoxazolylsulfonyl)(3,4-xylyl)amine]
- cleavage of apoptotic markers caspase 3 and 8 and PARP ([2]; 10 μM, 24 hrs): cleavage of the apoptotic markers caspase 3 and 8 and PARP
- proliferation of 786-O cells (MTT) [4]: significantly inhibited the proliferation

Structure (SMILES): Cc1noc(C)c1S(=O)(=O)Nc1ccc(Cc2ccccc2)cc1 [Compound P053, (3,5-Dimethyl-4-isoxazolylsulfonyl)(p-benzylphenyl)amine]
- cell death (PI staining) [5]: selectively caused cell death
- cleavage of caspase 3 and PARP ([2]; 10 μM, 24 hrs): increased cleavage
- cleavage of caspase 8 versus caspase 9 (extrinsic apoptosis) ([2]; 10 μM, 24 hrs): cleavage of caspase 8 but not caspase 9
- induction of apoptosis (cleaved PARP, cleaved caspase 8) ([2]; 10 μM, 24 hrs): had the ability to induce apoptosis

Structure (SMILES): COc1cc(OC)c(C=C2C(O)=Nc3ccccc32)c(OC)c1 [IC261, reference compound]
- induction of extrinsic apoptosis (apoptotic markers) ([2]; indicated amounts, 16 hrs): induced extrinsic apoptosis in a dose-dependent manner
- S194-FADD phosphorylation [6]: increase in S194-FADD phosphorylation

Structure (SMILES): CN1CCN(C(=O)C2C(C(=O)O)[C@H]3CC[C@@H]2O3)CC1 (stereo partly shown) [LB-100]
- inhibition of PP5 [7]: inhibit
- inhibition of PP1 [8]: inhibit

- binding to PP2A [9]: did not bind
- binding to PP5-FLAG compared to biotin-P5 ([10]; 10 μM): bound more
- binding of PP5-FLAG to biotinylated compound (streptavidin pulldown) ([10]; 0.01-10 μM): binds
- binding of H304Q, M309C and W386F PP5 mutants [11]: unable to bind
- binding of R275A and Y451F PP5 mutants compared to wild-type PP5 [11]: increased binding
- binding of R400A PP5 mutant compared to wild-type PP5 [12]: reduced binding
Structure (SMILES): Cc1ccc(N(CCCNC(=O)CCC[C@@H]2SC[C@@H]3NC(=O)N[C@@H]32)S(=O)(=O)c2c(C)noc2C)cc1C [biotin-P13, 4-[(3aS,4S,6aR)-2-Oxo-hexahydro-1H-thieno[3,4-d]imidazol-4-yl]-N-(3-[N-(3,4-dimethylphenyl)3,5-dimethyl-1,2-oxazole-4-sulfonamido]propyl}butanamide]
